Assay results taken from US20070128181A1, “Methods of Preventing Morbidity and Mortality by Perioperative Administration of a Blood Clotting Inhibitor” (priority 2002, published 2007).

Test system: patients with medically-refractory coronary artery disease scheduled for coronary artery bypass surgery
Experiment: Prospective, longitudinal study of aspirin use within 48 hours of revascularization in coronary artery bypass surgery patients
Format: in vivo
Description: A prospective, longitudinal study enrolled 5,436 patients. Eligible patients included those with medically-refractory coronary artery disease and scheduled for coronary artery bypass surgery at 70 medical institutions among 17 countries in North and South America, Europe, the Middle East and Asia. At each institution, 100 patients were to be prospectively enrolled according to a systematic sampling scheme that allowed a random sampling of patients at each institution among all patients undergoing surgery at that institution.
Of the 5,436 patients enrolled, 5,065 patients completed the study and were included in the final analysis. Of the 371 patients excluded, 32 were excluded due to patient withdrawal, 2 due to death prior to surgery, 97 due to cancellation or rescheduling of surgery, 132 patients due to change in procedure, 11 due to inadvertent enrollment in another study, 86 due to incomplete data and 11 due to incomplete blood sampling, shipping or storage.
Aspirin was administered in doses of 160 mg to 650 mg to 3,001 patients within 48 hours of revascularization. All potential side-effects associated with aspirin use were recorded daily by blinded investigators. Independent investigators coded all medications received-including pro- and anti-thrombotic and pro- and anti-coagulant medications, and blood products—by day throughout hospitalization, as well as at admission and at discharge, or until death.
For each enrolled patient, approximately 7,500 fields of data were collected throughout the patient's index hospitalization, from admission until discharge, by independent investigators; treated physicians were blinded to all research data. Data included demographic, historical, clinical, laboratory, eloectrocardiographic, specialized testing, resource utilization, and adverse outcomes. Following last patient enrollment, all data fields for each patient were queried centrally for completeness and accuracy, with all changes documented prior to database closure.
All outcomes were prespecified, defined by protocol, and discerned by investigators blinded to treatment group. Fatal and non-fatal outcomes were classified as cardiac (myocardial infarction, congestive heart failure and cardiac death), cerebral (stroke, encephalopathy and cerebral death), renal (dysfunction, failure and renal death), gastrointestinal (ischemia, infarction and GI death), or other (such as infectious, pulmonary). The diagnosis of myocardial infarction required either: the development of new Q waves (as defined by Minnesota Code 1-1-1I or 1I-2-7); or new persistent S T-segment or T-wave changes (Minnesota Code 4-1,4-2, 5-1 or 5-2) associated with an elevation of CK-MB isoenzyme values; or autopsy evidence of acute myocardial infarction. The diagnosis of heart failure required either: the use of a ventricular assist device; or the use of continuous inotropic support for at least 24 hours; or autopsy evidence of heart failure. Cerebral outcomes were classified as: clinically diagnosed stroke or encephalopathy; or CT, MRI or autopsy evidence of a focal or global defect. Renal dysfunction was defined as: a serum creatinine ≧177 μmol/L accompanied by a ≧62 μmol/L rise over baseline; and renal failure was defined as dysfunction requiring dialysis, or autopsy evidence of renal failure. Gastrointestinal ischemia was defined as abdominal pain diagnosed as intestinal ischemia, or detected at exploration; infarction required bowel resection, or autopsy evidence of intestinal infarction.
The risk of death for aspirin taking versus control populations were compared using the Chi-Square test. Individual ischemic outcomes involving the heart, brain, kidney and gastrointestinal tract, and combined ischemic outcomes were compared using Fisher's Exact Test or the Chi-Square test as appropriate. Odds ratios and the 95% confidence intervals are presented with associated P values. […]

CC(=O)CC(c1ccccc1)c1c(O)c2ccccc2oc1=O (stereo not shown) [Warfarin/coumadin, warfarin]
Odds Ratio, Multivariate Analyses for Morality (use over the week prior to revascularization, 95% CI 1.23-3.25, P 0.005): 2.00

CC(=O)Oc1ccccc1C(=O)O [Aspirin, aspirin]
risks of dying and ischemic complications associated with platelet transfusion after reperfusion and prophylactic anti-fibrinolytics (FIG. 3A): substantially reduced, but did not eliminate these risks
risk of dying during hospitalization (aspirin within 48 hours of revascularization, v. 5.9% without aspirin, P<0.0001): 1.4%
risk of non-fatal ischemic complications associated with the heart, brain, kidney or gastrointestinal tract (aspirin within 48 hours of revascularization, v. 24.5% without aspirin, P<0.0001): 13.6%
Odds Ratio, Multivariate Analyses for Morality (discontinuation of use (Table 3B)): 1.04
survival over the first 30 postsurgical days (early aspirin use, FIG. 2): Improved survival
reduction in mortality (first use of aspirin 48 hours after surgery, not significant, P=0.534): 15%
Gastritis, % of patients (human, in vivo): 0.33%
Hemorrhage: Gastrointestinal tract bleeding, % of patients (human, in vivo): 1.1%
Hemorrhage: Other Source of Bleeding, % of patients (human, in vivo): 1.7%
Impaired Wound Healing, % of patients (human, in vivo): 4.5%
Infection, % of patients (human, in vivo): 8.4%
Return to operating room for bleeding, % of patients (human, in vivo): 1.9%
Odds Ratio, Multivariate Analyses for Morality (use at admission (Table 3B)): 1.46
Odds Ratio, Multivariate Analyses for Morality (use following revascularization, 95% CI 0.19-0.40, P <0.0001): 0.27
Odds Ratio, Multivariate Analyses for Morality (use prior to surgery (Table 3B)): 0.77
Length of hospitalization (versus 11.32±9.44 without aspirin, P<0.0001): 9.57±7.14
patients who died within 12 hours of surgery (versus 25 patients in the control group): none
patients who died within 48 hours of surgery (versus 42 patients from the control group): one
